PubChem BioAssay (NCI)
Values joined by “and” are separate entries in the source; they are usually repeats but may differ in a detail not shown here. Identical values can stand only once.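 Grown in 96-well plates, cells were treated for 48 hours with each compound at five concentrations. Insufficient inhibition: endpoint recorded as highest concentration tested. GI50: concentration for 50% inhibition of growth. TGI: concentration producing complete growth inhibition.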

What was measured:
Experiment in all cases: NCI anticancer screen, dose series, 48 h
EKVX NSCLC = system: EKVX NSCLC
K-562 leukemia = system: K-562 leukemia
TK-10 renal = system: TK-10 renal
SR leukemia = system: SR leukemia
SW-620 colon = system: SW-620 colon
SF-539 CNS = system: SF-539 CNS
MALME-3M melanoma = system: MALME-3M melanoma
SK-OV-3 ovarian = system: SK-OV-3 ovarian
HT29 colon = system: HT29 colon
OVCAR-3 ovarian = system: OVCAR-3 ovarian

SMILES	TGI (EKVX NSCLC)	TGI (K-562 leukemia)	TGI (TK-10 renal)	TGI (SR leukemia)	TGI (SW-620 colon)	TGI (SF-539 CNS)	TGI (MALME-3M melanoma)	TGI (SK-OV-3 ovarian)	TGI (HT29 colon)	TGI (OVCAR-3 ovarian)	GI50 (EKVX NSCLC)	GI50 (K-562 leukemia)	GI50 (TK-10 renal)	GI50 (SR leukemia)	GI50 (SW-620 colon)	GI50 (SF-539 CNS)	GI50 (MALME-3M melanoma)	GI50 (SK-OV-3 ovarian)	GI50 (HT29 colon)	GI50 (OVCAR-3 ovarian)
O=C(OCCOCCOC(=O)c1c[nH]cc1-c1ccccc1)c1c[nH]cc1-c1ccccc1	69.9 µM	> 100 µM	80.1 µM	55.6 µM	76.5 µM	32.5 µM	55.2 µM	84.4 µM	35.2 µM	50 µM	–	–	–	–	–	–	–	–	–	–
Cc1ccc(S(=O)(=O)N2CCCCC2CCO)cc1 (stereo unspecified)	> 100 µM	> 100 µM	> 100 µM	> 100 µM	> 100 µM	> 100 µM	> 100 µM	> 100 µM	> 100 µM	> 100 µM	–	–	–	–	–	–	–	–	–	–
COc1ccccc1Nc1nc(-c2cc3cccc(C(F)(F)F)c3oc2=O)cs1	> 100 µM	> 100 µM	81.2 µM	> 100 µM	> 100 µM	0.199 µM	> 85.6 µM	> 93.9 µM	11.9 µM	0.203 µM	0.164 µM	0.0538 µM	13.5 µM	0.084 µM	0.144 µM	0.043 µM	1.63 µM	0.237 µM	0.126 µM	0.0624 µM
O=Nc1c(-c2cccc([N+](=O)[O-])c2)nc2ncccn12	43.3 µM	4.15 µM	30.2 µM	2.22 µM	6.03 µM	31 µM	29.1 µM	59.6 µM	44.1 µM	12.5 µM	18.3 µM	1.28 µM	11 µM	0.218 µM	2.08 µM	15.8 µM	14.5 µM	22.8 µM	9.84 µM	3.22 µM
Cn1c(=O)c(F)c(Nc2ccc(I)cc2F)c2c(=O)n(C[C@@H](O)CO)cnc21	> 64.1 µM	> 84 µM	26.4 µM	36.4 µM and > 10 µM	> 64.1 µM	22.8 µM and > 4.07 µM	< 0.01 µM	> 68.8 µM	19.5 µM and > 3.46 µM	40.4 µM and > 3.85 µM	0.042 µM and 0.0485 µM	0.172 µM and 0.112 µM	–	5.04 µM	< 0.01 µM and 0.00521 µM	3.21 µM and 0.907 µM	< 0.01 µM and 0.00177 µM	15.1 µM	< 0.01 µM and 0.0029 µM	13.6 µM
COC(=O)C1Cc2c([nH]c3ccccc23)C=N1 (stereo unspecified)	> 100 µM	> 100 µM	> 100 µM	> 100 µM	> 100 µM	> 100 µM	> 100 µM	> 100 µM	> 100 µM	> 100 µM	–	–	–	–	–	–	–	–	–	–
CSC(=S)N/N=C(\C)c1ccccn1	17.5 µM	23.3 µM	24.2 µM	6.46 µM	17.3 µM	3.54 µM	9.1 µM	15.2 µM	18.1 µM	–	0.117 µM	< 0.01 µM	0.527 µM	< 0.033 µM	0.169 µM	0.366 µM	0.177 µM	0.589 µM	< 0.0394 µM	< 0.01 µM
C=C1C(=O)O[C@H]2[C@H]1CC/C(COC(=O)CCC(=O)OC/C1=C/CC[C@@]3(C)O[C@H]3[C@H]3OC(=O)C(=C)[C@@H]3CC1)=C\CC[C@@]1(C)O[C@@H]21	11.6 µM	4.34 µM	3.38 µM	2.52 µM	2.1 µM	5.58 µM	2.88 µM	84.8 µM	3.03 µM	1.91 µM	2.55 µM	0.531 µM	1.75 µM	0.345 µM	0.602 µM	1.95 µM	1.14 µM	23.1 µM	1.46 µM	0.599 µM
CN(C)CCn1cc(-c2ccc3c(Nc4ccc(CC(=O)Nc5cccc(F)c5)cc4)ncnc3c2)cn1	> 10 µM	> 10 µM	4.21 µM	> 10 µM	2.91 µM	1.97 µM	> 10 µM	> 10 µM	3.16 µM	3.48 µM	5.89 µM	2.72 µM	1.62 µM	1.53 µM	1.05 µM	0.0918 µM	4.7 µM	> 10 µM	1.29 µM	1.6 µM
O=C1/C(=C/c2ccc(O)cc2)CCC1CNc1ccc(Cl)cc1 (stereo unspecified)	21.5 µM	10.2 µM	10.3 µM	5.51 µM	3.03 µM	15.5 µM	8.57 µM	20.9 µM	14.9 µM	6.1 µM	–	–	–	–	–	–	–	–	–	–
O=C1c2cccc3cccc(c23)C(=O)N1CCCCOc1ccc(-c2nc3ccc(N4CCOCC4)cc3[nH]2)cc1	> 57.9 µM	9.47 µM	13.4 µM	> 100 µM	12.3 µM	3.47 µM	3.21 µM	> 54 µM	> 35.3 µM	11.2 µM	17.6 µM	3.25 µM	3.57 µM	2.35 µM	3.78 µM	1.65 µM	0.558 µM	31.2 µM	2.23 µM	5.05 µM
CCCCCCCCSC1=CC(=O)C(OC)=C(OC)C1=O	24.8 µM	> 100 µM	3.95 µM	> 100 µM	3.37 µM	5.9 µM	4.44 µM	36.4 µM	12.6 µM	2.85 µM	10.1 µM	2.73 µM	2.06 µM	2.27 µM	1.71 µM	2.54 µM	1.96 µM	17.6 µM	3.75 µM	1.45 µM
N#C/C(=C/N1CCN(C(=O)c2ccco2)C1=S)C(N)=O	0.982 µM	> 100 µM	53.6 µM	> 100 µM	81.7 µM	–	56.8 µM	> 100 µM	> 100 µM	59.8 µM	0.342 µM	9.13 µM	12.1 µM	3.03 µM	22.1 µM	–	12.5 µM	42.6 µM	24.1 µM	19 µM
CCCCOC(=O)N[C@H]1CCc2cc(OC)c(OC)c(OC)c2-c2ccc(SC)c(=O)cc21	> 100 µM	65.1 µM	52.4 µM	> 43 µM	79 µM	< 0.01 µM	46.6 µM	7.24 µM	< 0.0281 µM	< 0.0329 µM	–	–	–	–	–	–	–	–	–	–
Cc1ccccc1NC(=O)c1[nH]c(=S)nc(N)c1-c1ccccc1C	> 100 µM	> 100 µM	> 100 µM	> 100 µM	> 100 µM	> 100 µM	> 100 µM	> 100 µM	> 100 µM	> 100 µM	–	–	–	–	–	–	–	–	–	–
O=C(Nc1ccccc1Cl)c1ccc(NC2=C(Cl)C(=O)N(Cc3ccccc3)C2=O)cc1	> 100 µM	49.3 µM	> 100 µM	41.5 µM	58.1 µM	> 100 µM	> 100 µM	> 100 µM	> 100 µM	36.6 µM	> 100 µM	21.8 µM	46.7 µM	15.7 µM	25.4 µM	45.6 µM	86.1 µM	> 100 µM	44.8 µM	18.7 µM
COc1ccc(Cc2ccccc2C(=O)O)c2ccccc12	98.9 µM	> 100 µM	50.2 µM	> 100 µM	> 100 µM	–	59.3 µM	> 100 µM	> 100 µM	47.1 µM	–	–	–	–	–	–	–	–	–	–
Cc1c(Cl)cccc1NC(=O)C(=O)C1C(=O)NC(=O)NC1=O	> 100 µM	> 100 µM	> 100 µM	> 100 µM	> 100 µM	> 100 µM	> 100 µM	> 100 µM	> 100 µM	> 100 µM	–	–	–	–	–	–	–	–	–	–
Cn1cccc1-c1cc(-c2ccc(Br)cc2)nc(N)c1C#N	> 100 µM	> 100 µM	> 100 µM	20.4 µM	> 100 µM	> 100 µM	> 100 µM	> 100 µM	> 100 µM	> 100 µM	> 100 µM	> 100 µM	> 100 µM	3.42 µM	> 100 µM	> 100 µM	> 100 µM	> 100 µM	> 100 µM	> 100 µM
CC1=C(C)C(=O)C(C(C)C2=C(C)C(=O)C(C)=C(C)C2=O)=C(C)C1=O	> 100 µM	> 100 µM	> 100 µM	31.7 µM	29.8 µM	> 100 µM	> 100 µM	> 100 µM	–	54 µM	32.6 µM	13.2 µM	90.6 µM	7.35 µM	15.7 µM	23.7 µM	44.1 µM	> 100 µM	–	21 µM
CC(C)(C)NNc1c([N+](=O)[O-])cnn(-c2ccccc2)c1=O	25.6 µM	2.02 µM	36.8 µM	4.67 µM	3.41 µM	27.1 µM	11.1 µM	16 µM	7.43 µM	5.54 µM	–	–	–	–	–	–	–	–	–	–
Cc1ccc(/C=C(\C#N)n2nnc3cc(F)c(F)cc32)cc1	41.2 µM	> 100 µM	11.3 µM	13.9 µM	11.2 µM	10.3 µM	56.7 µM	33.7 µM	1.53 µM	6.08 µM	3.86 µM	0.445 µM	2.52 µM	0.391 µM	0.891 µM	2.59 µM	15.9 µM	4.49 µM	0.421 µM	1.47 µM
CC(C)[C@]12O[C@H]1[C@@H]1O[C@]13[C@]1(O[C@H]1C[C@H]1c4c(C(=O)c5ccccc5)oc(OC(=O)c5ccccc5)c4CC[C@@]13C)[C@@H]2O	1.11 µM	–	27.1 µM	–	3.89 µM	0.115 µM	0.0498 µM	> 100 µM	> 38 µM	0.154 µM	0.0359 µM	0.0219 µM	0.0282 µM	0.0303 µM	0.0179 µM	0.0282 µM	0.0189 µM	0.0351 µM	0.0172 µM	0.0244 µM
NCCOc1ccccn1	> 100 µM	> 100 µM	> 100 µM	> 100 µM	> 100 µM	> 100 µM	> 100 µM	> 100 µM	> 100 µM	> 100 µM	–	–	–	–	–	–	–	–	–	–
CO/N=C1/c2cc(OC)ccc2-c2c(NOC)nc3ccccc3c21	> 100 µM	> 100 µM	39.7 µM	> 100 µM	> 100 µM	52.6 µM	23.7 µM	–	> 100 µM	> 100 µM	31.7 µM	65.7 µM	16 µM	38.7 µM	60.1 µM	21.9 µM	0.103 µM	–	42 µM	49.2 µM
Cc1c2c(nn1-c1ccc(S/N=C3\SCC(=O)CN3c3ccccc3)cc1)-c1ccccc1CC2	> 50 µM	> 50 µM	> 50 µM	> 50 µM	> 50 µM	> 50 µM	> 50 µM	> 50 µM	> 50 µM	> 50 µM	> 50 µM	17.6 µM	> 50 µM	1.88 µM	19.1 µM	22.4 µM	> 50 µM	43.3 µM	34.5 µM	> 50 µM
COC(=O)c1c(-c2ccccc2)csc1NC(=O)c1c(-c2ccccc2)noc1C	> 100 µM	> 100 µM	> 100 µM	> 100 µM	> 100 µM	> 100 µM	> 100 µM	> 100 µM	> 100 µM	> 100 µM	–	0.409 µM	> 100 µM	0.282 µM	0.705 µM	0.655 µM	> 100 µM	3.08 µM	0.399 µM	3.79 µM
CCN1C(=O)N(c2c(F)c(OC)cc(OC)c2F)Cc2cnc3[nH]c(CN4CCOCC4)cc3c21	> 100 µM	> 100 µM	–	9.95 µM	> 100 µM	13.7 µM	20.2 µM	–	> 100 µM	> 100 µM	9.49 µM	8.66 µM	–	1.62 µM	3.51 µM	1.01 µM	1.45 µM	–	2.84 µM	5.73 µM
CCC(=O)O[C@@H]1C2C(OC(C)=O)C34COC(C)([C@@H]3C3C(C[C@]3(C)OC(C)=O)[C@@H](OC(=O)c3ccccc3)C4=O)[C@H](OC(C)=O)[C@@]2(OC(C)=O)C[C@@H]1C (stereo partly specified)	> 100 µM	–	46 µM	> 100 µM	> 100 µM	47.5 µM	> 100 µM	83.1 µM	> 100 µM	82.7 µM	–	–	–	–	–	–	–	–	–	–
C[C@H](NC(=O)OC1C2C=CC(O)C1CC2)c1ccccc1 (stereo partly specified)	> 100 µM	> 100 µM	> 100 µM	46.2 µM	–	> 100 µM	> 100 µM	> 100 µM	–	> 100 µM	–	–	–	–	–	–	–	–	–	–
